Assay results as given in patent US12281079B2, “Quinoline derivatives, processes for their preparation and uses thereof for the treatment of cancer” (Lead Discovery Center GmbH, priority 2019, dated 2025).

target: mitochondrial RNA polymerase (POLRMT) (Mus musculus, UniProt Q8BKF1); test: Homogeneous TR-FRET assay for mitochondrial transcription activity; format: biochemical; conditions: homogeneous TR-FRET assay according to Example 4
Source text: The TR-FRET assay was basically conducted as described in WO2016/193231A1, especially as described in example 1 (hereby incorporated by reference). With respect to the back ground of the mitochondrial transcription it is referred to Falkenberg et al. (2002) and Posse et al. (Posse et al., 2015). The method monitors the activity of mitochondrial RNA-polymerase via detection of the formation of its product, a 407 bp long RNA sequence. Detection of the product is facilitated by hybridization of two DNA-oligonucleotide probes to specific and adjacent sequences within the RNA product sequence. Upon annealing of the probes, two fluorophores that are coupled directly to an acceptor nucleotide probe (ATT0647, 5′) or introduced via a coupled streptavidin interacting with a biotinylated donor nucleotide probe on the other side (Europium cryptate, 3′) are brought into sufficient proximity to serve as a fluorescence-donor-acceptor pair as generally described in Walters and Namchuk (2003). Thus, a FRET signal at 665 nm is generated upon excitation at 340 nm.
Briefly, the protocol described here was applied for screening and activity determination in a low-volume 384-well microtiter plate with non-binding surface. For high-throughput application in the 1536-well microtiter plate format, volumes of the reagent mixes were adjusted, maintaining the volumetric ratio. Proteins POLRMT (NM_172551.3), TFAM (NM_009360.4) and TFB2M (NM_008249.4) were diluted from their stocks to working concentrations of 150 nM, 1.8 μM and 330 nM respectively, in a dilution buffer containing 100 mM Tris-HCl pH 8.0, 200 mM NaCl, 10% (v/v) glycerole, 2 mM glutathione (GSH), 0.5 mM EDTA and 0.1 mg/mL BSA. Protein dilutions and template DNA, comprising a pUC18 plasmid encoding the mitochondrial light strand promoter, restriction linearized proximal to the promoter 3′-end (pUC-LSP), were mixed at the twofold final assay-concentration in a reaction buffer, containing 10 mM Tris-HCl pH 7.5, 10 mM MgCl2, 40 mM NaCl, 2 mM GSH, 0.01% (w/v) Tween-20 and 0.1 mg/mL BSA.
5 μL of this mix were dispensed, depending on the chosen microtiter plate format, using multi-channel pipettes or a Multidrop® dispenser (Thermo Fisher Scientific, Waltham Mass.) into the wells of a microtiter plate and incubated at room temperature (rt) for 10 min. Chemical compounds under scrutiny in the assay were applied using contact-free acoustic droplet-dispensing (Echo520® Labcyte Inc., Sunnyvale Calif.) from 10 mM compound stocks in 100% DMSO, to a final concentration of 10 μM or in serial dilution series of the required concentration range. Equal amounts of DMSO without any compound were added to positive control samples, followed by an incubation step at rt for 10 min.
The enzymatic reaction was started by the addition of 5 μL of a mix of dNTPs in reaction buffer to a final concentration of 500 μM each. No nucleotide mix was added to negative control samples. The content of the wells was mixed using a VarioTeleshaker™ (Thermo Fisher Scientific, Waltham Mass.) at 1500 rpm for 45 sec after which the microtiter plate was centrifuged at 500×g for 1 min. The samples were incubated for 2 h at rt with humidity control to avoid evaporation. The detection reagents were prepared in a buffer that was composed, such that the enzymatic reaction was terminated due to chelating of Mg-ions and increased ionic strength, containing 50 mM Tris-HCl pH 7.5, 700 mM NaCl, 20 mM EDTA, and 0.01% (w/v) Tween-20. Importantly Eu-cryptate-coupled streptavidin had to be preincubated with a 100-fold molar excess of a random sequence oligonucleotide for 10 min at rt in the dark to block unspecific binding of single stranded RNA to the protein. Subsequently, the blocked streptavidin(-Eu) was mixed with the DNA-probes on ice and kept away from light until use. […]

Sequence of mitochondrial RNA polymerase (POLRMT) (Q8BKF1 42-1207): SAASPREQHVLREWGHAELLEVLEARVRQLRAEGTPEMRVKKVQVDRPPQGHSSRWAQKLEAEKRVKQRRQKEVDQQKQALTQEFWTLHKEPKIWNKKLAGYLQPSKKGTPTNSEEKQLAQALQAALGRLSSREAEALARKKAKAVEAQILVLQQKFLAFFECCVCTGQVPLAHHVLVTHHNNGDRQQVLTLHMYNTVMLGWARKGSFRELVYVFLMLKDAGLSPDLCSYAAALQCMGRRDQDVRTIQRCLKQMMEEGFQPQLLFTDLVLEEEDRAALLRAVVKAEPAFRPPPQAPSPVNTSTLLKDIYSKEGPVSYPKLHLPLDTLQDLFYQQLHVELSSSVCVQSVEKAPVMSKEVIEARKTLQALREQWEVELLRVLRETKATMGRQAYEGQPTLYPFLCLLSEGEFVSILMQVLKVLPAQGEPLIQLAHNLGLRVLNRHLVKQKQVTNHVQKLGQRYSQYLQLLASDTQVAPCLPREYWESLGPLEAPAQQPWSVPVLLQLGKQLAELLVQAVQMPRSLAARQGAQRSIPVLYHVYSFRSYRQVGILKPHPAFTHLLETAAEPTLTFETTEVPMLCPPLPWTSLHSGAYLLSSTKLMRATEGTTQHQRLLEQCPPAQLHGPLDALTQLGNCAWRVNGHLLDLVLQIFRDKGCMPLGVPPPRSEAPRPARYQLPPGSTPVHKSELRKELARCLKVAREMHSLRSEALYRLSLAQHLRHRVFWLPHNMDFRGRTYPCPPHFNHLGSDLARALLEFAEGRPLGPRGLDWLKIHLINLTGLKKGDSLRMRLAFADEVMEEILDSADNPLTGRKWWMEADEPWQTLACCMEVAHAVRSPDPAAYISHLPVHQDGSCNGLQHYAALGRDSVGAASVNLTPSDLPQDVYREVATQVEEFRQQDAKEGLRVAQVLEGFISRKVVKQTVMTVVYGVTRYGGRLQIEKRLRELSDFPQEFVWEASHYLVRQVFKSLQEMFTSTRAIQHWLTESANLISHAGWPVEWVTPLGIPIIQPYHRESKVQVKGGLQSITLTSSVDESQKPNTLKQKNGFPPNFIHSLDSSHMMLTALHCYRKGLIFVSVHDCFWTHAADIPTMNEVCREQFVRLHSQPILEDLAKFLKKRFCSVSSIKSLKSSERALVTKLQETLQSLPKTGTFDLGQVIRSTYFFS

`CCOC(=O)[C@H]1CCN(C(=O)[C@@H](C)Oc2ccc3c(-c4ccc(F)cc4Cl)ccnc3c2)C1` [Compound 75, ethyl (3S)-1-[(2R)-2-[[4-(2-chloro-4-fluoro-phenyl)-7-quinolyl]oxy]propanoyl]pyrrolidine-3-carboxylate] and `CCOC(=O)C1CCN(C(=O)[C@@H](C)Oc2ccc3c(-c4ccc(F)cc4Cl)ccnc3c2)CC1` [Compound 58, ethyl 1-[(2R)-2-[[4-(2-chloro-4-fluoro-phenyl)-7-quinolyl]oxy]propanoyl]piperidine-4-carboxylate] fall in the same range of IC50: 100 to 1000 nM for the first, 100 to 1000 nM for the second.

Compared with `C[C@@H](Oc1ccc2c(-c3ccccc3F)ccnc2c1)C(=O)N1CCC[C@H](CC(=O)O)C1` [Compound 110, 2-[(3R)-1-[(2R)-2-[[4-(2-fluorophenyl)-7-quinolyl]oxy]propanoyl]-3-piperidyl]acetic acid], `C[C@@H](Oc1ccc2c(-c3ccccc3C(F)(F)F)ccnc2c1)C(=O)N1CCC[C@H](CC(=O)O)C1` [Compound 136, 2-[(3R)-1-[(2R)-2-[[4-[2-(trifluoromethyl)phenyl]-7-quinolyl]oxy]propanoyl]-3-piperidyl]acetic acid] is lower in IC50: 1000 to 10000 nM for the first, 100 to 1000 nM for the second.

`CNC(=O)[C@H]1CCCN(C(=O)[C@@H](C)Oc2ccc3c(-c4ccc(F)cc4Cl)cc(Cl)nc3c2)C1` [Compound 105, (3S)-N-methyl-1-[(2R)-2-[[2-chloro-4-(2-chloro-4-fluoro-phenyl)-7-quinolyl]oxy]propanoyl]piperidine-3-carboxamide] and `CNC(=O)C[C@H]1CCCN(C(=O)[C@@H](C)Oc2ccc3c(-c4ccc(F)cc4Cl)cc(Cl)nc3c2)C1` [Compound 98, 2-((R)-1-((R)-2-((2-chlor-4-(2-chloro-4-fluorophenyl)quinolin-7-yl)oxy)propanoyl)piperidin-3-yl)-N-methylacetamide] fall in the same range of IC50: 1000 to 10000 nM for the first, 1000 to 10000 nM for the second.

`CCOC(=O)C[C@H]1CCCN(C(=O)[C@@H](C)Oc2ccc3c(-c4c(C)cccc4C)ccnc3c2)C1` [Compound 6, ethyl 2-[(3R)-1-[(2R)-2-[[4-(2,6-dimethylphenyl)-7-quinolyl]oxy]propanoyl]-3-piperidyl]acetate] and `Cc1cccc(C)c1-c1ccnc2cc(O[C@H](C)C(=O)N3CCCC(CS(N)(=O)=O)C3)ccc12` (mixture of isomers) [Compound 190, [1-[rac-(2R)-2-[[4-(2,6-dimethylphenyl)-7-quinolyl]oxy]propanoyl]-3-piperidyl]methanesulfonamide] cannot be ordered by IC50: < 20 nM for the first, < 20 nM for the second.

First: C[C@H](Oc1ccc2c(-c3ccccc3Cl)ccnc2c1)C(=O)N1CCC[C@@H](C(=O)O)C1 [Compound 102, (3R)-1-[(2S)-2-[[4-(2-chlorophenyl)-7-quinolyl]oxy]propanoyl]piperidine-3-carboxylic acid]
Second: CC(Oc1ccc2c(-c3ccccc3Cl)ccnc2c1)C(=O)N1CCC[C@H](C(=O)O)C1 (mixture of isomers) [Compound 23, rac-(3S)-1-[2-[[4-(2-chlorophenyl)-7-quinolyl]oxy]propanoyl]piperidine-3-carboxylic acid]
The IC50 of the first is higher: 1000 to 10000 nM for the first, 20 to 100 nM for the second.

First: CCC(=O)N1CCN(C(=O)[C@@H](C)Oc2ccc3c(-c4ccccc4Cl)cc(Cl)nc3c2)CC1 [Compound 72, (2R)-2-[[2-chloro-4-(2-chlorophenyl)-7-quinolyl]oxy]-1-(4-propanoylpiperazin-1-yl)propan-1-one]
Second: CCOC(=O)C[C@H]1CCCN(C(=O)[C@@H](C)Oc2ccc3c(-c4ccccc4Cl)cc(Cl)nc3c2)C1 [Compound 92, ethyl 2-[(3R)-1-[(2R)-2-[[2-chloro-4-(2-chlorophenyl)-7-quinolyl]oxy]propanoyl]-3-piperidyl]acetate]
The IC50 of the first is lower: 100 to 1000 nM for the first, 1000 to 10000 nM for the second. The first is the more potent here.

First: CCOC(=O)C[C@@H]1CCCN(C(=O)[C@@H](C)Oc2ccc3c(-c4ccc(F)cc4Cl)ccnc3c2)C1 [Compound 89, ethyl 2-[(3S)-1-[(2R)-2-[[4-(2-chloro-4-fluoro-phenyl)-7-quinolyl]oxy]propanoyl]-3-piperidyl]acetate]
Second: COC(=O)C[C@@H]1CCN(C(=O)[C@@H](C)Oc2ccc3c(-c4ccc(F)cc4Cl)ccnc3c2)C1 [Compound 67, methyl 2-[(3S)-1-[(2R)-2-[[4-(2-chloro-4-fluoro-phenyl)-7-quinolyl]oxy]propanoyl]pyrrolidin-3-yl]acetate]
The IC50 of the first is higher: 1000 to 10000 nM for the first, 100 to 1000 nM for the second.

First: C[C@@H](Oc1ccc2c(-c3ccccc3N(C)C)ccnc2c1)C(=O)N1CCC[C@H](CC(=O)O)C1 [Compound 145, 2-[(3R)-1-[(2R)-2-[[4-[2-(dimethylamino)phenyl]-7-quinolyl]oxy]propanoyl]-3-piperidyl]acetic acid]
Second: COc1cccc(Cl)c1-c1ccnc2cc(O[C@H](C)C(=O)N3CCC[C@H](CC(=O)O)C3)ccc12 [Compound 152, 2-[(3R)-1-[(2R)-2-[[4-(2-chloro-6-methoxy-phenyl)-7-quinolyl]oxy]propanoyl]-3-piperidyl]acetic acid]
The IC50 of the first is lower: 100 to 1000 nM for the first, 1000 to 10000 nM for the second.

First: CCOC(=O)c1cccc(NC(=O)[C@@H](C)Oc2ccc3c(-c4ccc(F)cc4Cl)ccnc3c2)c1 [Compound 108, ethyl 3-[[(2 R)-2-[[4-(2-chloro-4-fluoro-phenyl)-7-quinolyl]oxy]propanoyl]amino]benzoate]
Second: COC(=O)C[C@H]1CCN(C(=O)[C@@H](C)Oc2ccc3c(-c4ccc(F)cc4Cl)ccnc3c2)C1 [Compound 37, methyl 2-[(3R)-1-[(2R)-2-[[4-(2-chloro-4-fluoro-phenyl)-7-quinolyl]oxy]propanoyl]pyrrolidin-3-yl]acetate]
The IC50 of the first is higher: 1000 to 10000 nM for the first, 100 to 1000 nM for the second.

`C[C@@H](Oc1ccc2c(-c3ccccc3Cl)cc(Cl)nc2c1)C(=O)N1CCC[C@H](C(=O)N(C)C)C1` [Compound 100, (3S)-1-[(2R)-2-[[2-chloro-4-(2-chlorophenyl)-7-quinolyl]oxy]propanoyl]-N,N-dimethyl-piperidine-3-carboxamide] and `CNC(=O)[C@H]1CCCN(C(=O)[C@@H](C)Oc2ccc3c(-c4ccccc4Cl)cc(Cl)nc3c2)C1` [Compound 96, (3S)-1-[(2R)-2-[[2-chloro-4-(2-chlorophenyl)-7-quinolyl]oxy]propanoyl]-N-methyl-piperidine-3-carboxamide] fall in the same range of IC50: 1000 to 10000 nM for the first, 1000 to 10000 nM for the second.

Compared with `C[C@H](Oc1ccc2c(-c3ccc(F)cc3Cl)ccnc2n1)C(=O)N1CCC[C@H](C(=O)O)C1` [Compound 127, (3S)-1-[(2S)-2-[[5-(2-chloro-4-fluoro-phenyl)-1,8-naphthyridin-2-yl]oxy]propanoyl]piperidine-3-carboxylic acid], `Cc1cc(F)cc(C)c1-c1ccnc2cc(O[C@H](C)C(=O)N3CCC[C@H](C(=O)O)C3)ccc12` [Compound 84, (3S)-1-[(2R)-2-[[4-(4-fluoro-2,6-dimethyl-phenyl)-7-quinolyl]oxy]propanoyl]piperidine-3-carboxylic acid] is lower in IC50: 1000 to 10000 nM for the first, < 20 nM for the second.

`CCOC(=O)[C@H]1CCCN(C(=O)COc2ccc3c(-c4ccccc4Cl)ccnc3c2)C1` [Compound 87, ethyl (3S)-1-[2-[[4-(2-chlorophenyl)-7-quinolyl]oxy]acetyl]piperidine-3-carboxylate] and `C[C@@H](Oc1ccc2c(-c3ccccc3Cl)ccnc2c1)C(=O)O` [Compound 103, (2R)-2-[[4-(2-chlorophenyl)-7-quinolyl]oxy]propanoic acid] fall in the same range of IC50: 1000 to 10000 nM for the first, 1000 to 10000 nM for the second.

Compared with `C[C@@H](Oc1ccc2c(-c3ccc(F)cc3Cl)ccnc2c1)C(=O)N1CC2(COC2)C1` [Compound 218, (2R)-2-[[4-(2-chloro-4-fluoro-phenyl)-7-quinolyl]oxy]-1-(2-oxa-6-azaspiro[3.3]heptan-6-yl)propan-1-one], `Cc1cccc(C)c1-c1ccnc2cc(O[C@H](C)C(=O)N3CCC[C@@H](S(N)(=O)=O)C3)ccc12` [Compound 172, (3R)-1-[(2R)-2-[[4-(2,6-dimethylphenyl)-7-quinolyl]oxy]propanoyl]piperidine-3-sulfonamide] is lower in IC50: 1000 to 10000 nM for the first, < 20 nM for the second. The second is the more potent here.
